# Reference: patent US20080200405A1, “Drug Resistance Reversal In Neoplastic Disease” (priority 2007, published 2008)
# Columns and labels:
# [1] = In vitro stability of OT-551 in rabbit plasma; type: in vitro ADME
# Procedure: (§1) The active metabolite of OT-551 (Cyclopropanecarboxylic acid 1-hydroxy-2,2,6,6-tetramethyl-piperidin-4-yl ester) is TP-H. The objective of this analysis was to determine the in vitro half-life of OT-551 in rat, rabbit, dog, and human plasma under standardized incubation conditions.
# (§2) OT-551 was incubated with pooled rat, rabbit, dog, and human plasma for various times under standardized incubation conditions. Pre-labeled tubes containing pooled plasma from rats, rabbits, dogs, and humans were pre-incubated in a shaking 37° C. water bath. A OT-551 solution was added to the tubes at a final concentration of 1000 ng/mL. Time zero samples (n=5) were immediately removed and transferred into tubes containing a stabilizer solution (DTPA, acetylcysteine and ascorbic acid), the LC/MS/MS assay internal standard and methanol. […] The tubes were vortexed, placed on ice, followed by centrifugation. One hundred-μL aliquots of the supernatant were transferred into HPLC sample vials. Additional tubes (n=5 at each time point) were incubated for 5, 10, 20, 30, 60, 120, and 240 minutes at 37° C. and thereafter processed. The amount of OT-551 and TP-H in each incubated sample was quantified using validated LC/MS/MS assays.
# [2] = tested on: bFGF-induced angiogenesis in the CAM model; assay: bFGF (FGF2)-stimulated CAM model; type: in vivo, chicken; details: for Mean % Inhibition ± SD / Mean Branch points ± SEM: bFGF 1 μg/ml
# [3] = In vitro stability of OT-551 in rat plasma; type: in vitro ADME
# Procedure: as §1, §2
# [4] = Single-dose 10-minute intravenous infusion toxicokinetics of OT-551; type: in vivo, Sprague-Dawley rats
# Procedure: Blood for toxicokinetic evaluations was collected at pre-determined time points during and after the infusion. Plasma samples were analyzed for OT-551 and TP-H using validated LC/MS/MS assays. Descriptive toxicokinetic parameters were determined by standard model independent methods (Gilbaldi and Perrier, 1982) based on the plasma concentration-time data. […] The plasma concentrations were rounded to the nearest tenth of a ng/mL before the calculations. […] Nominal time points were used for all calculations. Since there was no apparent gender difference in the plasma concentrations of OT-551 and TP-H, the data for male and female rats at each sampling time point were pooled.
# [5] = In vitro stability of OT-551 in dog plasma; type: in vitro ADME
# Procedure: as §1, §2
# [6] = Sprague-Dawley rats, 10-minute iv infusion of OT-551 10 mg/kg
compound,measurement,setting,value
CC1(C)CC(O)CC(C)(C)N1O [TEMPOL-H],Concentrations (ng/mL) of TP-H in Rabbit Plasma,[1]; OT-551 incubation time 0 min,270.55 ± 35.45 ng/mL
same,Concentrations (ng/mL) of TP-H in Rabbit Plasma,[1]; OT-551 incubation time 5 min,587.17 ± 21.99 ng/mL
same,Concentrations (ng/mL) of TP-H in Rabbit Plasma,[1]; OT-551 incubation time 10 min,604.21 ± 21.99 ng/mL
same,Concentrations (ng/mL) of TP-H in Rabbit Plasma,[1]; OT-551 incubation time 20 min,590.06 ± 40.97 ng/mL
same,Concentrations (ng/mL) of TP-H in Rabbit Plasma,[1]; OT-551 incubation time 30 min,533.01 ± 117.40 ng/mL
same,Concentrations (ng/mL) of TP-H in Rabbit Plasma,[1]; OT-551 incubation time 60 min,569.19 ± 32.96 ng/mL
same,Concentrations (ng/mL) of TP-H in Rabbit Plasma,[1]; OT-551 incubation time 120 min,525.63 ± 10.31 ng/mL
same,Concentrations (ng/mL) of TP-H in Rabbit Plasma,[1]; OT-551 incubation time 240 min,477.54 ± 40.95 ng/mL
same,inhibition of bFGF-induced angiogenesis,[2]; 100-400 μg,dose-dependent inhibition
same,Mean % Inhibition ± SD,[2]; 100 μg,20 ± 12%
same,Mean Branch points ± SEM,[2]; 100 μg,172 ± 12.4
same,Mean % Inhibition ± SD,[2]; 200 μg,45.3 ± 7.5 %
same,Mean Branch points ± SEM,[2]; 200 μg,147.2 ± 7.5
same,Mean % Inhibition ± SD,[2]; 400 μg,58.7 ± 10.9 %
same,Mean Branch points ± SEM,[2]; 400 μg,133.8 ± 10.8
same,Mean % Inhibition ± SD,[2]; 800 μg,28.1 ± 6.8 %
same,Mean Branch points ± SEM,[2]; 800 μg,164.2 ± 6.7
same,Concentrations (ng/mL) of TP-H in Rat Plasma,[3]; OT-551 incubation time 0 min,10.23 ± 1.59 ng/mL
same,Concentrations (ng/mL) of TP-H in Rat Plasma,[3]; OT-551 incubation time 5 min,30.47 ± 1.65 ng/mL
same,Concentrations (ng/mL) of TP-H in Rat Plasma,[3]; OT-551 incubation time 10 min,50.91 ± 2.11 ng/mL
same,Concentrations (ng/mL) of TP-H in Rat Plasma,[3]; OT-551 incubation time 20 min,86.30 ± 3.30 ng/mL
same,Concentrations (ng/mL) of TP-H in Rat Plasma,[3]; OT-551 incubation time 30 min,119.63 ± 7.08 ng/mL
same,Concentrations (ng/mL) of TP-H in Rat Plasma,[3]; OT-551 incubation time 60 min,201.94 ± 4.19 ng/mL
same,Concentrations (ng/mL) of TP-H in Rat Plasma,[3]; OT-551 incubation time 120 min,304.66 ± 7.27 ng/mL
same,Concentrations (ng/mL) of TP-H in Rat Plasma,[3]; OT-551 incubation time 240 min,362.66 ± 7.50 ng/mL
same,peak plasma concentration of TP-H at the end of the OT-551 infusion,[4]; 10 mg/kg OT-551,2481.7 ng/mL
same,plasma levels of TP-H at 4 hr post infusion,[4]; 10 mg/kg OT-551,still quantifiable
same,terminal elimination half-life of TP-H,[4]; 10 mg/kg OT-551,24 min
same,peak plasma concentration of TP-H at the end of the OT-551 infusion,[4]; 30 mg/kg OT-551,8337.7 ng/mL
same,peak plasma concentration of TP-H at the end of the OT-551 infusion,[4]; 100 mg/kg OT-551,29020.8 ng/mL
same,peak plasma concentration of TP-H at the end of the OT-551 infusion,[4]; 200 mg/kg OT-551,60802.1 ng/mL
same,levels of TP-H four hours after terminating the infusion relative to concentrations immediately after terminating the infusion,"[4]; 30, 100 and 200 mg/kg OT-551",less than 1%
same,Mean ± SD Plasma Concentrations of TP-H,"[4]; OT-551 10 mg/kg iv infusion, 1.167 hr",204.7 ± 85.6 ng/mL
same,Mean ± SD Plasma Concentrations of TP-H,"[4]; OT-551 10 mg/kg iv infusion, 2.167 hr",25.2 ± 24.0 ng/mL
same,Mean ± SD Plasma Concentrations of TP-H,"[4]; OT-551 10 mg/kg iv infusion, 4.167 hr",4.2 ± 10.3 ng/mL
same,Mean ± SD Plasma Concentrations of TP-H,"[4]; OT-551 30 mg/kg iv infusion, 4.167 hr, n = 5",53.8 ± 29.7 ng/mL
same,Mean ± SD Plasma Concentrations of TP-H,"[4]; OT-551 100 mg/kg iv infusion, 4.167 hr",160.0 ± 97.5 ng/mL
same,Mean ± SD Plasma Concentrations of TP-H,"[4]; OT-551 200 mg/kg iv infusion, 4.167 hr",524.5 ± 237.0 ng/mL
same,AUC(0-4.167 hr) of TP-H,[4]; [6],1694.8 ng·h/mL
same,Cmax of TP-H,[4]; [6],2481.7 ng/mL
same,T½ of TP-H,"[4]; Sprague-Dawley rats, 10-minute iv infusion of OT-551 10 mg/kg, elimination half-life",24 min
same,AUC of TP-H,"[4]; Sprague-Dawley rats, 10-minute iv infusion of OT-551 10 mg/kg, to time infinity",1697.5 ng·h/mL
same,Cmax of TP-H,"[4]; Sprague-Dawley rats, 10-minute iv infusion of OT-551 30 mg/kg",8337.7 ng/mL
same,Cmax of TP-H,"[4]; Sprague-Dawley rats, 10-minute iv infusion of OT-551 100 mg/kg",29020.8 ng/mL
same,Cmax of TP-H,"[4]; Sprague-Dawley rats, 10-minute iv infusion of OT-551 200 mg/kg",60802.2 ng/mL
same,Mean ± SD Plasma Concentrations of TP-H,"[4]; Sprague-Dawley rats, single 10-minute iv infusion of OT-551 10 mg/kg, 0.167 hr from start of infusion",2481.7 ± 325.8 ng/mL
same,Mean ± SD Plasma Concentrations of TP-H,"[4]; Sprague-Dawley rats, single 10-minute iv infusion of OT-551 30 mg/kg, 0.167 hr, n = 5",8337.7 ± 2099.5 ng/mL
same,Mean ± SD Plasma Concentrations of TP-H,"[4]; Sprague-Dawley rats, single 10-minute iv infusion of OT-551 100 mg/kg, 0.167 hr",29020.8 ± 11713.7 ng/mL
same,Mean ± SD Plasma Concentrations of TP-H,"[4]; Sprague-Dawley rats, single 10-minute iv infusion of OT-551 200 mg/kg, 0.167 hr",60802.2 ± 8922.5 ng/mL
same,Tmax of TP-H,"[4]; rat, in vivo, iv",10 min
same,Concentrations (ng/mL) of TP-H in Dog Plasma,[5]; OT-551 incubation time 0 min,0.00 ± 0.00 ng/mL
same,Concentrations (ng/mL) of TP-H in Dog Plasma,[5]; OT-551 incubation time 5 min,5.85 ± 0.73 ng/mL
same,Concentrations (ng/mL) of TP-H in Dog Plasma,[5]; OT-551 incubation time 10 min,8.77 ± 0.65 ng/mL
same,Concentrations (ng/mL) of TP-H in Dog Plasma,[5]; OT-551 incubation time 20 min,12.79 ± 0.74 ng/mL
same,Concentrations (ng/mL) of TP-H in Dog Plasma,[5]; OT-551 incubation time 30 min,16.22 ± 0.67 ng/mL
same,Concentrations (ng/mL) of TP-H in Dog Plasma,[5]; OT-551 incubation time 60 min,25.68 ± 1.04 ng/mL
same,Concentrations (ng/mL) of TP-H in Dog Plasma,[5]; OT-551 incubation time 120 min,39.31 ± 1.09 ng/mL
same,Concentrations (ng/mL) of TP-H in Dog Plasma,[5]; OT-551 incubation time 240 min,53.92 ± 1.68 ng/mL
